The target in this experiment is T1, HPK1 (Homo sapiens, UniProt Q92918).
T1 construct: purchased SignalChem M23-11G
T1 sequence (Q92918 1-346 limits assumed): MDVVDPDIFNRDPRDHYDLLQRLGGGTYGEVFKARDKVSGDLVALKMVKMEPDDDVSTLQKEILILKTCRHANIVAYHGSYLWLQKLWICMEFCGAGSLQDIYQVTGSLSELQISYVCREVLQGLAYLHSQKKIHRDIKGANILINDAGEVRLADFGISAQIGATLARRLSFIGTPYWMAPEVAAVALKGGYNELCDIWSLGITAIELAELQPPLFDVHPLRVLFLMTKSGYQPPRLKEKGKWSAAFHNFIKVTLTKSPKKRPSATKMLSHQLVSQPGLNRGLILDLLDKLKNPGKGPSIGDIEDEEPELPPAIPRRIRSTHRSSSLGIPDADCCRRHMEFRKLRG
The experiment is described as follows: HPK1 Kinase Binding Assay. Particulars: LanthaScreen tracer 222, one hour incubation at 25 °C. The protocol:
A stock solution of 1 mM test compound was prepared in DMSO. The compound plate was prepared by 3-fold and 11-point serial dilutions. 0.1 µL of the compound in DMSO was transferred from the compound plate to the white 384 well polystyrene plates. The assay buffer contained 50 mM HEPES, pH 7.5, 0.01% Tween-20, 5 mM MgCl2, 0.01% BSA, and 5 mM DTT. 5 µL of 4 nM active HPK1 (SignalChem M23-11G) prepared in the buffer was added to the plate. The enzyme concentration given was based on the given stock concentration reported by the vender. […] After one hour incubation at 25 °C, the plates were read on a PHERAstar FS plate reader (BMG Labtech). Ki values were determined.
(TR-FRET usually uses a lanthanide donor and a delayed reading to cut background.)

By Ki is commonly meant the equilibrium dissociation constant of an inhibitor or competing ligand from its target. Read a high Ki as weaker binding. In turn, `COC[C@@H]1CCN1c1ccc(NC(=O)c2ccnc(-c3c(F)cccc3OC)n2)c(N2C[C@@H]3C[C@H]2CN3)c1` [Example 39, N-(2-((1S,4S)-2,5-Diazabicyclo[2.2.1]heptan-2-yl)-4-((S)-2-(methoxymethyl)azetidin-1-yl)phenyl)-2-(2-fluoro-6-methoxyphenyl)pyrimidine-4-carboxamide] registered a Ki of under 100 nM.

In the case of `COc1cccc(F)c1-c1nccc(C(=O)Nc2ccc(-c3ccncc3C#N)c(F)c2N2C[C@@H]3C[C@H]2CN3)n1` [Example 40, N-(2-((1S,4S)-2,5-Diazabicyclo[2.2.1]heptan-2-yl)-4-(3-cyanopyridin-4-yl)-3-fluorophenyl)-2-(2-fluoro-6-methoxyphenyl)pyrimidine-4-carboxamide], the Ki is under 100 nM.

`COc1cccc(F)c1-c1nccc(C(=O)Nc2ccc(-c3ccncc3C#N)cc2N2C[C@@H](N)C[C@H]2CO)n1` [Example 41, N-(2-((2S,4S)-4-Amino-2-(hydroxymethyl)pyrrolidin-1-yl)-4-(3-cyanopyridin-4-yl)phenyl)-2-(2-fluoro-6-methoxyphenyl)pyrimidine-4-carboxamide]: the Ki is under 100 nM. `COc1cnccc1-c1ccc(NC(=O)c2ccnc(-c3c(F)cccc3OC)n2)c(N2C[C@@H](N)C[C@H]2CO)c1` [Example 44, N-(2-((2S,4S)-4-Amino-2-(hydroxymethyl)pyrrolidin-1-yl)-4-(3-methoxypyridin-4-yl)phenyl)-2-(2-fluoro-6-methoxyphenyl)pyrimidine-4-carboxamide] came in with a Ki of under 100 nM.

`COc1cccc(F)c1-c1nccc(C(=O)Nc2ccc(-c3c(F)cccc3C#N)cc2N2C[C@@H](N)C[C@H]2CO)n1` [Example 45, N-(3-((2S,4S)-4-Amino-2-(hydroxymethyl)pyrrolidin-1-yl)-2'-cyano-6'-fluorobiphenyl-4-yl)-2-(2-fluoro-6-methoxyphenyl)pyrimidine-4-carboxamide] yielded a Ki of under 100 nM. Compound `COc1cccc(F)c1-c1nccc(C(=O)Nc2ccc(C(C)C)cc2N2C[C@@H](N)C[C@H]2CO)n1` [Example 48, N-(2-((2S,4S)-4-Amino-2-(hydroxymethyl)pyrrolidin-1-yl)-4-isopropylphenyl)-2-(2-fluoro-6-methoxyphenyl)pyrimidine-4-carb oxamide] registered a Ki of under 100 nM. The value for `COc1cccc(F)c1-c1nccc(C(=O)Nc2ccc(-c3ccncc3C#N)cc2N2C[C@@H](O)C[C@H]2CO)n1` [Example 49, N-(4-(3-Cyanopyridin-4-yl)-2-((2S,4S)-4-hydroxy-2-(hydroxymethyl)pyrrolidin-1-yl)phenyl)-2-(2-fluoro-6-methoxyphenyl)pyrimidine-4-carboxamide] was under 100 nM; that for `COc1cccc(F)c1-c1nccc(C(=O)Nc2ccc(-c3cnccc3C#N)cc2N2C[C@@H](C)NC[C@H]2CO)n1` [Example 50, N-(4-(4-Cyanopyridin-3-yl)-2-((2S,5R)-2-(hydroxymethyl)-5-methylpiperazin-1-yl)phenyl)-2-(2-fluoro-6-methoxyphenyl)pyrimidine-4-carboxamide] was under 100 nM; that for `COc1cccc(F)c1-c1nccc(C(=O)Nc2ccc(-c3cnccc3C#N)cc2N2C[C@H](C)NC[C@H]2CO)n1` [Example 51, N-(4-(4-Cyanopyridin-3-yl)-2-((2S,5S)-2-(hydroxymethyl)-5-methylpiperazin-1-yl)phenyl)-2-(2-fluoro-6-methoxyphenyl)pyrimidine-4-carboxamide] was under 100 nM. The value for `COc1cccc(F)c1-c1nccc(C(=O)Nc2ccc(-c3cnccc3C#N)cc2N2CC3(CC3)NC[C@H]2CO)n1` [Example 52, (S)-N-(4-(4-Cyanopyridin-3-yl)-2-(6-(hydroxymethyl)-4,7-diazaspiro[2.5]octan-7-yl)phenyl)-2-(2-fluoro-6-methoxyphenyl)pyrimidine-4-carboxamide] was under 100 nM; that for `COc1cccc(F)c1-c1nccc(C(=O)Nc2ccc(-c3cnccc3C#N)cc2N2C[C@@H](N)C[C@H]2C2(O)CC2)n1` [Example 53, N-(2-((2S,4S)-4-Amino-2-(1-hydroxycyclopropyl)pyrrolidin-1-yl)-4-(4-cyanopyridin-3-yl)phenyl)-2-(2-fluoro-6-methoxyphenyl)pyrimidine-4-carboxamide] was under 100 nM; that for `COc1cccc(F)c1-c1nccc(C(=O)Nc2ccc(-c3cnccc3C#N)cc2N2C[C@@H](N)C[C@H]2C(C)(C)O)n1` [Example 54, N-(2-((2S,4S)-4-Amino-2-(2-hydroxypropan-2-yl)pyrrolidin-1-yl)-4-(4-cyanopyridin-3-yl)phenyl)-2-(2-fluoro-6-methoxyphenyl)pyrimidine-4-carboxamide] was under 100 nM. The value for `COc1cccc(F)c1-c1nccc(C(=O)Nc2ccc(-c3cnccc3C#N)cc2N2[C@@H]3CN[C@@H](C3)[C@@H]2CO)n1` [Example 56, N-(4-(4-Cyanopyridin-3-yl)-2-((1S,3R,4S)-3-(hydroxymethyl)-2,5-diazabicyclo [2.2.1]heptan-2-yl)phenyl)-2-(2-fluoro-6-methoxyphenyl)pyrimidine-4-carboxamide] was under 100 nM.

In turn, `COc1cccc(F)c1-c1nccc(C(=O)Nc2ccc(-c3cnccc3C#N)cc2N2C[C@@H]3C[C@@]2(CO)CN3)n1` [Example 57, N-(4-(4-Cyanopyridin-3-yl)-2-((1S,4S)-1-(hydroxymethyl)-2,5-diazabicyclo[2.2.1]heptan-2-yl)phenyl)-2-(2-fluoro-6-methoxyphenyl)pyrimidine-4-carboxamide] showed a Ki of under 100 nM.

Compound `COc1cccc(F)c1-c1nccc(C(=O)Nc2ccc(-c3cnccc3C#N)cc2N2CC[C@H](N)C[C@@H]2C)n1` [Example 58, N-(2-((2S,4S)-4-Amino-2-methylpiperidin-1-yl)-4-(4-cyanopyridin-3-yl)phenyl)-2-(2-fluoro-6-methoxyphenyl)pyrimidine-4-carboxamide] displayed a Ki of under 100 nM. Turning to `COc1cccc(F)c1-c1cccc(C(=O)Nc2ccc(-c3cnccc3C#N)cc2N2C[C@@H](N)C[C@H]2CO)n1` [Example 59, N-(2-((2S,4S)-4-Amino-2-(hydroxymethyl)pyrrolidin-1-yl)-4-(4-cyanopyridin-3-yl)phenyl)-6-(2-fluoro-6-methoxyphenyl)picolinamide], the Ki is under 100 nM.

On to `COc1cccc(F)c1-c1nc(C(=O)Nc2ccc(-c3cnccc3C#N)cc2N2C[C@@H](N)C[C@H]2CO)ccc1C#N` [Example 60, N-(2-((2S,4S)-4-Amino-2-(hydroxymethyl)pyrrolidin-1-yl)-4-(4-cyanopyridin-3-yl)phenyl)-5-cyano-6-(2-fluoro-6-methoxyphenyl)picolinamide], for which the Ki was under 100 nM. In the case of `COc1ccc(C(=O)Nc2ccc(-c3cnccc3C#N)cc2N2C[C@@H](N)C[C@H]2CO)nc1-c1c(F)cccc1OC` [Example 61, N-(2-((2S,4S)-4-Amino-2-(hydroxymethyl)pyrrolidin-1-yl)-4-(4-cyanopyridin-3-yl)phenyl)-6-(2-fluoro-6-methoxyphenyl)-5-methoxypicolinamide] it was 100 to 500 nM.

In the case of `N#Cc1ccncc1-c1ccc(NC(=O)c2ccnc(-c3c(F)cccc3F)n2)c(N2C[C@@H](N)C[C@H]2CO)c1` [Example 62, N-(2-((2S,4S)-4-Amino-2-(hydroxymethyl)pyrrolidin-1-yl)-4-(4-cyanopyridin-3-yl)phenyl)-2-(2,6-difluorophenyl)pyrimidine-4-carboxamide], the Ki is under 100 nM. In the case of `Cc1cccc(F)c1-c1nccc(C(=O)Nc2ccc(-c3cnccc3C#N)cc2N2C[C@@H](N)C[C@H]2CO)n1` [Example 63, N-(2-((2S,4S)-4-Amino-2-(hydroxymethyl)pyrrolidin-1-yl)-4-(4-cyanopyridin-3-yl)phenyl)-2-(2-fluoro-6-methylphenyl)pyrimidine-4-carboxamide] it was under 100 nM. In the case of `N#Cc1ccncc1-c1ccc(NC(=O)c2ccnc(-c3c(F)cccc3Cl)n2)c(N2C[C@@H](N)C[C@H]2CO)c1` [Example 64, N-(2-((2S,4S)-4-Amino-2-(hydroxymethyl)pyrrolidin-1-yl)-4-(4-cyanopyridin-3-yl)phenyl)-2-(2-chloro-6-fluorophenyl)pyrimidine-4-carboxamide] it was under 100 nM; in that of `COc1cccc(F)c1-c1nccc(C(=O)Nc2ccc(-c3c(C)nn(C)c3C)nc2N2C[C@@H](N)C[C@H]2CO)n1` [Example 65, N-(2-((2S,4S)-4-Amino-2-(hydroxymethyl)pyrrolidin-1-yl)-6-(1,3,5-trimethyl-1H-pyrazol-4-yl)pyridin-3-yl)-2-(2-fluoro-6-methoxyphenyl)pyrimidine-4-carboxamide], under 100 nM; in that of `N[C@H]1C[C@@H](CO)N(c2ccc(F)cc2NC(=O)c2ccnc(-c3c(F)cccc3F)n2)C1` [Example 66, N-(2-((2S,4S)-4-Amino-2-(hydroxymethyl)pyrrolidin-1-yl)-5-fluorophenyl)-2-(2,6-difluorophenyl)pyrimidine-4-carboxamide], under 100 nM. In the case of `COc1ccc(C#N)c(F)c1-c1nccc(C(=O)Nc2cc(F)ccc2N2C[C@@H](N)C[C@H]2CO)n1` [Example 67, N-(2-((2S,4S)-4-Amino-2-(hydroxymethyl)pyrrolidin-1-yl)-5-fluorophenyl)-2-(3-cyano-2-fluoro-6-methoxyphenyl)pyrimidine-4-carboxamide] it was under 100 nM.

The values are drawn from patent EP3755703B1, “N-(PHENYL)-2-(PHENYL)PYRIMIDINE-4-CARBOXAMIDE DERIVATIVES AND RELATED COMPOUNDS AS HPK1 INHIBITORS FOR TREATING CANCER” (Incyte Corporation, priority 2018, dated 2019).
